From BindingDB's records for doi:10.1016/j.bioorg.2013.11.005 (Sastra University, 2014)

Assays:
Angiogenin = Angiogenin (Homo sapiens, UniProt P03950); test: Inhibition Kinetics with Angiogenin; details: pH 6
Description: The assay was carried out in oligovinylsulfonic acid free 0.1 M Mes-NaOH buffer (pH 6.0) containing 0.1 M NaCl using substrate concentration from 20 to 122 nM. The concentration of compounds 2, 3, 4 and 5 ranged from 0 to 0.8, 0 to 1.2, 0 to 1.2 and 0 to 2.5 mM, respectively. The angiogenin concentration was 0.36 µM.

[1] = target: Ribonuclease pancreatic (Bos taurus) (UniProt P61823)
Ribonuclease pancreatic (Bos taurus), sequence (P61823 whole entry, looked up): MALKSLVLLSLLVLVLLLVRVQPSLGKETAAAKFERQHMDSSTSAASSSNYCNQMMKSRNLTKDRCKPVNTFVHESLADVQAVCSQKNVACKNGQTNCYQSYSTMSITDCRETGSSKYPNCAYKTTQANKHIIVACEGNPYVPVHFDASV

Angiogenin, sequence (P03950 whole entry): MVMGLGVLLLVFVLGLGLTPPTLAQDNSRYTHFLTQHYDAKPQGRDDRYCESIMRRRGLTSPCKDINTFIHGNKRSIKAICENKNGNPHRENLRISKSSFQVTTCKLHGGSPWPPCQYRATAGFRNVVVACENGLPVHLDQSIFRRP

Ki (Angiogenin) [µM]	Ki [1] [µM]	Compound
1110	380	Cc1cn([C@H]2C[C@@H](NC(=O)CC(=O)O)[C@@H](CO)O2)c(=O)[nH]c1=O [N-[2-Hydroxymethyl-5-(5-methyl-2,4-dioxo-3,4-dihydro-2H-pyrimidin-1-yl)-tetrahydro-furan-3-yl]-malonamic acid (Compound 6)]
427	80	Cc1cn([C@H]2C[C@@H](NC(=O)C(N)CO)[C@@H](CO)O2)c(=O)[nH]c1=O (stereo partly drawn) [Ser-aT (Compound 2)]
1250	451	Cc1cn([C@H]2C[C@@H](NC(=O)C(N)Cc3ccc(O)cc3)[C@@H](CO)O2)c(=O)[nH]c1=O (stereo partly drawn) [Tyr-aT (Compound 3)]
775	132	Cc1cn([C@H]2C[C@@H](NC(=O)C(=O)O)[C@@H](CO)O2)c(=O)[nH]c1=O [N-[2-Hydroxymethyl-5-(5-methyl-2,4-dioxo-3,4-dihydro-2H-pyrimidin-1-yl)-tetrahydro-furan-3-yl]-oxalamic acid (Compound 5)]
